Among the data in patent US12419874B2, “GLP-1R agonist compound and use thereof” (Chongqing Pharmaceutical Research Institute Co., Ltd., priority 2024, dated 2025) are EC50 values, retold here.

Structures are written as SMILES.

Chain of GLP-1R (P43220 24-463): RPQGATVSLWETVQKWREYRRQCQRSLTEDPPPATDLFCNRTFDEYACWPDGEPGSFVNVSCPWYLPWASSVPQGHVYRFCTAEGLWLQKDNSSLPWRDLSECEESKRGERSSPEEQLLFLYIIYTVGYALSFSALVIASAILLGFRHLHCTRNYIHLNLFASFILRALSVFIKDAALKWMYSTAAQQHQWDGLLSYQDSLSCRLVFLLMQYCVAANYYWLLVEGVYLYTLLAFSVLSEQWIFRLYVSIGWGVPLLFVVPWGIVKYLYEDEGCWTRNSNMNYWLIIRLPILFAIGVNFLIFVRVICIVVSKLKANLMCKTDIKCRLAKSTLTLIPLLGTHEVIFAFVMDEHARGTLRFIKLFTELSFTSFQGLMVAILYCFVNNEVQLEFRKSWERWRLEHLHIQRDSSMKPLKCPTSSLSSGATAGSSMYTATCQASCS

The experiment has as its target GLP-1R (Homo sapiens, UniProt P43220). Put plainly: GLP-1R agonistic activity by One-Lite luciferase assay in HEK293-GLP-1R-luc cells (Example 59). Particulars: 6 h incubation, read-out: cAMP EC50. The experiment is classed as cell-based. As for the experimental part: The agonistic activities of the compounds of the present disclosure on GLP-1R were evaluated by detecting the generation of cAMP.
• (1) Cell line: HEK293-GLP-1R-luc Stable Cell Line (Cobioer, CBP71117); • (2) Culture medium: DMEM+10% FBS (Gibco); • (3) Kit: One-Lite™ kit Luciferase Assay System (Vazyme). 2. Experimental Procedures • (1) HEK293-GLP1R cells were inoculated in a 96-well plate at a density of 30000 cells per well; • (2) 10× working solution of each compound was formulated; • (3) 10 μL of 10× working solution of each compound was added to corresponding well and incubated at 37° C. for 6 h; • (4) 100 μL of One-Lite Luciferase Assay Substrate formulated using One-Lite Luciferase Assay Buffer was added to each well; • (5) The plate was incubated at room temperature for 3 min; • (6) The plate was read by a multimode microplate reader to detect chemiluminescence. 3. Data Analysis • (1) % Activity was calculated by the following formula: % Activity=100−(Signalcmpd−SignalAve-PC)/(SignalAve-VC−SignalAve-PC)×100 • (2) The dose-response curve was plotted to calculate EC50: Y=Bottom+(Top−Bottom)/(1+10^(Log EC50−X)*HillSlope)) • X: log of agonist concentration; Y: Activity. 4. Experimental Results
As usually defined, the EC50 is the concentration needed to bring the measured effect to its halfway point. Turning to `Cc1cc(-n2nc3c(c2-n2ccn(-c4ccc5c(cnn5C)c4F)c2=O)[C@H](C)N(C(=O)c2cc4cc([C@H]5CCOC(C)(C)C5)ccc4n2[C@@]2(c4noc(=O)[nH]4)C[C@@H]2C)CC32CC(N)C2)cc(C)c1F` (some centres unmarked) [Compound 183], the EC50 is at most 20 nM. In the case of `COC1CC2(C1)CN(C(=O)c1cc3cc([C@H]4CCOC(C)(C)C4)ccc3n1[C@@]1(c3noc(=O)[nH]3)C[C@@H]1C)[C@@H](C)c1c2nn(-c2cc(C)c(F)c(C)c2)c1-n1ccn(-c2ccc3c(cnn3C)c2F)c1=O` (some centres unmarked) [Compound 184], the EC50 is at most 20 nM. Then `CCOC1CC2(C1)CN(C(=O)c1cc3cc([C@H]4CCOC(C)(C)C4)ccc3n1[C@@]1(c3noc(=O)[nH]3)C[C@@H]1C)[C@@H](C)c1c2nn(-c2cc(C)c(F)c(C)c2)c1-n1ccn(-c2ccc3c(cnn3C)c2F)c1=O` (some centres unmarked) [Compound 187], with at most 20 nM. With `Cc1cc(-n2nc3c(c2-n2ccn(-c4ccc5c(cnn5C)c4F)c2=O)[C@H](C)N(C(=O)c2cc4cc([C@H]5CCOC(C)(C)C5)ccc4n2[C@@]2(c4noc(=O)[nH]4)C[C@@H]2C)CC32CCSCC2)cc(C)c1F` [Compound 188], the half-maximal effective concentration (EC50) is at most 20 nM. Then `Cc1cc(-n2nc3c(c2-n2ccn(-c4ccc5c(cnn5C)c4F)c2=O)[C@H](C)N(C(=O)c2cc4cc([C@H]5CCOC(C)(C)C5)ccc4n2[C@@]2(c4noc(=O)[nH]4)C[C@@H]2C)CC32CSC2)cc(C)c1F` [Compound 189], with at most 20 nM; and `Cc1cc(-n2nc3c(c2-n2ccn(-c4ccc5c(cnn5C)c4F)c2=O)[C@H](C)N(C(=O)c2cc4cc([C@H]5CCOC(C)(C)C5)ccc4n2[C@@]2(c4noc(=O)[nH]4)C[C@@H]2C)CC32C[S+]([O-])C2)cc(C)c1F` (some centres unmarked) [Compound 190], with at most 20 nM; and `Cc1cc(-n2nc3c(c2-n2ccn(-c4ccc5c(cnn5C)c4F)c2=O)[C@H](C)N(C(=O)c2cc4cc([C@H]5CCOC(C)(C)C5)ccc4n2[C@@]2(c4noc(=O)[nH]4)C[C@@H]2C)CC32CS(=O)(=O)C2)cc(C)c1F` [Compound 191], with at most 20 nM. As to `Cc1cc(-n2nc3c(c2-n2ccn(-c4ccc5c(cnn5C)c4F)c2=O)[C@H](C)N(C(=O)c2cc4cc([C@H]5CCOC(C)(C)C5)ccc4n2[C@@]2(c4noc(=O)[nH]4)C[C@@H]2C)CC32CC(OC(C)C)C2)cc(C)c1F` (some centres unmarked) [Compound 192], the EC50 was at most 20 nM. Regarding `Cc1cc(-n2nc3c(c2-n2ccn(-c4ccc5c(cnn5C)c4F)c2=O)[C@H](C)N(C(=O)c2cc4cc([C@H]5CCOC(C)(C)C5)ccc4n2[C@@]2(c4noc(=O)[nH]4)C[C@@H]2C)CC32CC(OC3CC3)C2)cc(C)c1F` (some centres unmarked) [Compound 193], the EC50 is at most 20 nM. Next, `Cc1cc(-n2nc3c(c2-n2ccn(-c4ccc5c(cnn5C)c4F)c2=O)[C@H](C)N(C(=O)c2cc4cc([C@H]5CCOC(C)(C)C5)ccc4n2[C@@]2(c4noc(=O)[nH]4)C[C@@H]2C)CC32CC(OC(F)F)C2)cc(C)c1F` (some centres unmarked) [Compound 194]: at most 20 nM; `Cc1cc(-n2nc3c(c2-n2ccn(-c4ccc5c(cnn5C)c4F)c2=O)[C@H](C)N(C(=O)c2cc4cc([C@H]5CCOC(C)(C)C5)ccc4n2[C@@]2(c4noc(=O)[nH]4)C[C@@H]2C)CC32CCNC2)cc(C)c1F` (some centres unmarked) [Compound 195]: at most 20 nM. Take `Cc1cc(-n2nc3c(c2-n2ccn(-c4ccc5c(cnn5C)c4F)c2=O)[C@H](C)N(C(=O)c2cn4cc(C5CCOC(C)(C)C5)ccc4c2C2(c4noc(=O)[nH]4)CC2)CC32CC2)cc(C)c1F` (some centres unmarked) [Compound 196]: the EC50 is at most 20 nM. As for `Cc1cc(-n2nc3c(c2-n2ccn(-c4ccc5c(cnn5C)c4F)c2=O)[C@H](C)N(C(=O)c2cc4cc([C@H]5CCOC(C)(C)C5)ccc4n2[C@@]2(c4noc(=O)[nH]4)C[C@@H]2C)CC32C=CCC2)cc(C)c1F` (some centres unmarked) [Compound 197], the EC50 was at most 20 nM.

As for `Cc1cc(-n2nc3c(c2-n2ccn(-c4ccc5c(cnn5C)c4F)c2=O)[C@H](C)N(C(=O)c2cc4cc([C@H]5CCOC(C)(C)C5)ccc4n2[C@@]2(c4noc(=O)[nH]4)C[C@@H]2C)CC32CCC(=O)CC2)cc(C)c1F` [Compound 198], the EC50 was at most 20 nM. Consider `Cc1cc(-n2nc3c(c2-n2ccn(-c4ccc5c(cnn5C)c4F)c2=O)[C@H](C)N(C(=O)c2cc4cc([C@H]5CCOC(C)(C)C5)ccc4n2[C@@]2(c4noc(=O)[nH]4)C[C@@H]2C)CC32CCC(O)CC2)cc(C)c1F` (some centres unmarked) [Compound 199], for which the EC50 is at most 20 nM. Then `Cc1cc(-n2nc3c(c2-n2ccn(-c4ccc5c(cnn5C)c4F)c2=O)[C@H](C)N(C(=O)c2cc4cc([C@H]5CCOC(C)(C)C5)ccc4n2[C@@]2(c4noc(=O)[nH]4)C[C@@H]2C)CC32CCC(F)(F)CC2)cc(C)c1F` [Compound 200], with 20 to 100 nM. Next, `Cc1cc(-n2nc3c(c2-n2ccn(-c4ccc5c(cnn5C)c4F)c2=O)[C@H](C)N(C(=O)c2cc4cc([C@H]5CCOC(C)(C)C5)ccc4n2[C@@]2(c4noc(=O)[nH]4)C[C@@H]2C)CC32CCC(F)CC2)cc(C)c1F` (some centres unmarked) [Compound 201]: 20 to 100 nM; `COC1CCC2(CC1)CN(C(=O)c1cc3cc([C@H]4CCOC(C)(C)C4)ccc3n1[C@@]1(c3noc(=O)[nH]3)C[C@@H]1C)[C@@H](C)c1c2nn(-c2cc(C)c(F)c(C)c2)c1-n1ccn(-c2ccc3c(cnn3C)c2F)c1=O` (some centres unmarked) [Compound 202]: at most 20 nM; `Cc1cc(-n2nc3c(c2-n2ccn(-c4ccc5c(cnn5C)c4F)c2=O)[C@H](C)N(C(=O)c2cc4cc([C@H]5CCOC(C)(C)C5)ccc4n2[C@@]2(c4noc(=O)[nH]4)C[C@@H]2C)CC32CC=CCC2)cc(C)c1F` (some centres unmarked) [Compound 203]: at most 20 nM.

In the case of `[2H]C([2H])([2H])OC1CC2(C1)CN(C(=O)c1cc3cc([C@H]4CCOC(C)(C)C4)ccc3n1[C@@]1(c3noc(=O)[nH]3)C[C@@H]1C)[C@@H](C)c1c2nn(-c2cc(C)c(F)c(C)c2)c1-n1ccn(-c2ccc3c(cnn3C)c2F)c1=O` (some centres unmarked) [Compound 207], the EC50 is at most 20 nM.

Turning to `Cc1cc(-n2nc3c(c2-n2ccn(-c4ccc5c(cnn5C)c4F)c2=O)[C@H](C)N(C(=O)c2cc4cc([C@H]5CCOC(C)(C)C5)ccc4n2[C@@]2(c4noc(=O)[nH]4)C[C@@H]2C)CC32CCC(=O)C2)cc(C)c1F` (some centres unmarked) [Compound 208], the EC50 was at most 20 nM.

As for `Cc1cc(-n2nc3c(c2-n2ccn(-c4ccc5c(cnn5C)c4F)c2=O)[C@H](C)N(C(=O)c2cc4cc([C@H]5CCOC(C)(C)C5)ccc4n2[C@@]2(c4noc(=O)[nH]4)C[C@@H]2C)CC32CCC(O)C2)cc(C)c1F` (some centres unmarked) [Compound 209], the EC50 was at most 20 nM. Next, `COC1CCC2(C1)CN(C(=O)c1cc3cc([C@H]4CCOC(C)(C)C4)ccc3n1[C@@]1(c3noc(=O)[nH]3)C[C@@H]1C)[C@@H](C)c1c2nn(-c2cc(C)c(F)c(C)c2)c1-n1ccn(-c2ccc3c(cnn3C)c2F)c1=O` (some centres unmarked) [Compound 210]: at most 20 nM; `Cc1cc(-n2nc3c(c2-n2ccn(-c4ccc5c(cnn5C)c4F)c2=O)[C@H](C)N(C(=O)c2cc4cc([C@H]5CCOC(C)(C)C5)ccc4n2[C@@]2(c4noc(=O)[nH]4)C[C@@H]2C)CC32CCC(F)C2)cc(C)c1F` (some centres unmarked) [Compound 211]: at most 20 nM.

For the compound `Cc1cc(-n2nc3c(c2-n2ccn(-c4ccc5c(cnn5C)c4F)c2=O)[C@H](C)N(C(=O)c2cc4cc([C@H]5CCOC(C)(C)C5)ccc4n2[C@@]2(c4noc(=O)[nH]4)C[C@@H]2C)CC32CCC(F)(F)C2)cc(C)c1F` (some centres unmarked) [Compound 212], the EC50 is at most 20 nM. Next, `Cc1cc(-n2nc3c(c2-n2ccn(-c4ccc5c(cnn5C)c4F)c2=O)[C@H](C)N(C(=O)c2cc4cc([C@H]5CCOC(C)(C)C5)ccc4n2[C@@]2(c4noc(=O)[nH]4)C[C@@H]2C)CC32CC(O)C(O)C2)cc(C)c1F` (some centres unmarked) [Compound 213]: at most 20 nM. Next, `COC1CC2(CC1OC)CN(C(=O)c1cc3cc([C@H]4CCOC(C)(C)C4)ccc3n1[C@@]1(c3noc(=O)[nH]3)C[C@@H]1C)[C@@H](C)c1c2nn(-c2cc(C)c(F)c(C)c2)c1-n1ccn(-c2ccc3c(cnn3C)c2F)c1=O` (some centres unmarked) [Compound 214]: at most 20 nM; `Cc1cc(-n2nc3c(c2-n2ccn(-c4ccc5c(cnn5C)c4F)c2=O)[C@H](C)N(C(=O)c2cc4cc([C@H]5CCOC(C)(C)C5)ccc4n2[C@@]2(c4noc(=O)[nH]4)C[C@@H]2C)CC32CC(C)C2)cc(C)c1F` (some centres unmarked) [Compound 219]: at most 20 nM. In the case of `CNC1CC2(C1)CN(C(=O)c1cc3cc([C@H]4CCOC(C)(C)C4)ccc3n1[C@@]1(c3noc(=O)[nH]3)C[C@@H]1C)[C@@H](C)c1c2nn(-c2cc(C)c(F)c(C)c2)c1-n1ccn(-c2ccc3c(cnn3C)c2F)c1=O` (some centres unmarked) [Compound 220], the EC50 is at most 20 nM. Then `Cc1cc(-n2nc3c(c2-n2ccn(-c4ccc5c(cnn5C5CC5)c4F)c2=O)[C@H](C)N(C(=O)c2cc4cc([C@H]5CCOC(C)(C)C5)ccc4n2[C@@]2(c4noc(=O)[nH]4)C[C@@H]2C)CC32CC2)cc(C)c1F` [Compound 221], with at most 20 nM. Take `CCn1ncc2c(F)c(-n3ccn(-c4c5c(nn4-c4cc(C)c(F)c(C)c4)C4(CC4)CN(C(=O)c4cc6cc([C@H]7CCOC(C)(C)C7)ccc6n4[C@@]4(c6noc(=O)[nH]6)C[C@@H]4C)[C@H]5C)c3=O)ccc21` [Compound 222]: the EC50 is at most 20 nM.

Turning to `Cc1cc(-n2nc3c(c2-n2ccn(-c4ccc5c(cnn5CC(F)(F)F)c4F)c2=O)[C@H](C)N(C(=O)c2cc4cc([C@H]5CCOC(C)(C)C5)ccc4n2[C@@]2(c4noc(=O)[nH]4)C[C@@H]2C)CC32CC2)cc(C)c1F` [Compound 223], the EC50 was at most 20 nM.
